Experimental data: PubChem BioAssay (NCI)
Values joined by “and” are separate entries in the source; they are usually repeats but may differ in a detail not shown here. Equal values may be shown once.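 Method: 48-hour compound exposure of cells in 96-well plates, five concentrations, linear interpolation of endpoints. Abbreviation: GI50, concentration required for 50% inhibition of growth. Definition used: TGI = concentration required for complete inhibition of growth.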 Non-standard residues stand in square brackets, D forms with d. Residues, ends and D or L forms follow the SMILES beside them. *: point of attachment. ONb = O=[N+]([O-])c1ccc(CO*)cc1; AllylGly = C=CC[CH](N)C(=O)O; Boc = CC(C)(C)OC(=O)*

Experiments:
Assay in all cases: growth of human tumour cells (NCI), 48 h
CAKI-1 renal = test system: CAKI-1 renal
NCI-H522 lung = test system: NCI-H522 lung
COLO 205 colon = test system: COLO 205 colon
UACC-257 melanoma = test system: UACC-257 melanoma
786-0 renal = test system: 786-0 renal
EKVX NSCLC = test system: EKVX NSCLC
SF-539 CNS = test system: SF-539 CNS
IGROV1 ovarian = test system: IGROV1 ovarian
K-562 leukemia = test system: K-562 leukemia
MOLT-4 leukemia = test system: MOLT-4 leukemia

SMILES | TGI (CAKI-1 renal) | TGI (NCI-H522 lung) [µM] | TGI (COLO 205 colon) | TGI (UACC-257 melanoma) | TGI (786-0 renal) | TGI (EKVX NSCLC) | TGI (SF-539 CNS) | TGI (IGROV1 ovarian) [µM] | GI50 (CAKI-1 renal) | GI50 (NCI-H522 lung) | GI50 (COLO 205 colon) | GI50 (UACC-257 melanoma) | GI50 (786-0 renal) | GI50 (EKVX NSCLC) | GI50 (SF-539 CNS) | GI50 (IGROV1 ovarian) | GI50 (K-562 leukemia) | TGI (K-562 leukemia) | TGI (MOLT-4 leukemia) [µM] | GI50 (MOLT-4 leukemia)
CC(=O)n1c(COS(C)(=O)=O)nc2ccccc21 | > 100 µM | > 100 | > 100 µM | > 100 µM | > 100 µM | > 100 µM | > 100 µM | > 100 |  |  |  |  |  |  |  |  |  |  |  | 
C=CCC(NC(=O)OC(C)(C)C)C(=O)NC(CCC(=O)OCc1ccc([N+](=O)[O-])cc1)C(N)=O (stereo not given) (Boc-[AllylGly]-Glu(ONb)-NH2; configuration not given here) | 54.5 µg/mL |  | 53.1 µg/mL | 31.7 µg/mL | 52 µg/mL | 61.7 µg/mL | 37.6 µg/mL |  | 19.1 µg/mL | 28.1 µg/mL | 22.9 µg/mL | 16.2 µg/mL | 21.9 µg/mL | 22.8 µg/mL | 20.6 µg/mL | 34.1 µg/mL | 18.2 µg/mL | 65.5 µg/mL |  | 
CC1=C(C)C(=O)c2c(cc3ccc4ccccc4n23)C1=O |  |  | > 100 µM |  | > 100 µM | > 100 µM | > 100 µM | > 100 |  |  |  |  |  |  |  |  |  | > 100 µM | > 100 | 
O=C(O)c1c(-c2cccc3ccccc23)sc(-c2cccc3ccccc23)c1C(=O)O |  | > 100 | > 100 µM | > 100 µM | > 100 µM | > 100 µM | > 100 µM | > 100 |  |  |  |  |  |  |  |  |  | > 100 µM | 85.7 | 
Cc1ccc(OCC(=O)N2N=C(c3ccccc3)CC2(O)c2ccccc2)cc1 (stereo not given) | > 100 µM | > 100 | > 100 µM | > 100 µM | 30 µM |  | > 100 µM | > 100 |  |  |  |  |  |  |  |  |  | > 100 µM | > 100 | 
COc1cc2c3c(n(C)c(=O)c2cc1OC)-c1cc2c(cc1/C3=C\CCCCCN)OCO2 | 54.2 µM | > 100 | > 100 µM | 45.9 µM | > 50.9 µM | 52.2 µM | 14.8 µM | 1.34 | 1.63 µM | 1.23 µM | 5.8 µM | 16.8 µM | 0.979 µM | 16.4 µM | 1.96 µM | < 0.01 µM |  |  |  | 
CC[C@H](C)N(CCN)C(=O)c1cc2ccccc2c(-c2ccccc2Cl)n1 |  | 34 | 17.9 µM | 3.37 µM | > 100 µM | 25.4 µM | 6.5 µM | 26.2 |  |  |  |  |  |  |  |  |  | 12.6 µM | 24.9 | 
N#CCC1COc2ccccc2O1 (stereo not given) | > 10 µM | > 10 | > 10 µM | > 10 µM | > 10 µM |  | > 10 µM | > 10 |  |  |  |  |  |  |  |  |  | > 10 µM | > 10 | 
O=C(c1ccccc1)C(C(=O)c1ccccc1)C1(O)C(=O)c2ccccc2C1=O |  | 42.2 | > 100 µM | > 100 µM | > 100 µM | > 100 µM | > 100 µM | > 100 |  |  |  |  |  |  |  |  |  | 60.6 µM | > 100 | 
O=C(CNc1nncs1)NO |  | > 100 | > 100 µM | > 100 µM | > 100 µM | > 100 µM | > 100 µM | > 100 |  |  |  |  |  |  |  |  |  | > 100 µM | > 100 | 
N#Cc1cn(C2OC(CO)C(O)C2O)c2ncnc(N)c12 (stereo not given) |  |  |  |  | > 100 µM |  |  |  | 0.0705 µM and 0.045 µM and < 0.01 µM | 0.0293 µM |  |  |  |  |  | 0.0266 µM | 0.0175 µM |  |  | 0.045 µM and 0.0319 µM
COc1ccc(-c2nc3sc(C)cn3c2/C=C/C(=O)c2cc(OC)c(OC)c(OC)c2)cc1 | > 100 µM | 3.14 | > 100 µM | 6.37 µM | > 100 µM | > 100 µM | > 100 µM | 4.33 | 5.15 µM | 0.88 µM | 4.7 µM | 2.49 µM | 5.31 µM | 4.04 µM | 4.28 µM | 1.65 µM | 3.13 µM | > 100 µM |  | 
Cc1cc(-c2ncc(CC(=O)Nc3ccc(-c4cnccn4)cn3)cc2C)ccn1 | > 100 µM | > 100 | > 100 µM | > 100 µM | > 100 µM |  | > 100 µM | > 100 | 17.1 µM | 22.7 µM | 42.8 µM | 16.6 µM | > 100 µM |  | 26.1 µM | 30.5 µM | 22.2 µM | > 100 µM | > 100 | 23.9 µM
Nc1nc(SCc2ccccn2)c2ncn(C3CCCC3)c2n1 | > 100 µM | > 100 | > 100 µM | > 100 µM | > 100 µM | > 100 µM |  | > 100 |  |  |  |  |  |  |  |  |  | > 100 µM |  | 
CN(C)c1cccc2c(S(=O)(=O)N[C@H]3CC[C@H]4[C@@H]5CCc6cc(O)ccc6[C@H]5CC[C@]34C)cccc12 | 7.43 µM |  |  | 11.5 µM | 9.78 µM |  | 4.14 µM | 16.2 | 2.05 µM |  |  | 2.51 µM | 3.18 µM |  | 1.88 µM | 3.45 µM | 1.71 µM | > 100 µM | > 100 | 3.14 µM
